Here are results for one molecule from patent US20130203805A1, “Methods for treating anemia using inhibitors of hypoxia-inducible factor (HIF) hydroxylase” (FIBROGEN, INC., priority 2001, published 2013).

One assay deals with erythropoietin (EPO). The assay is described as follows: Serum/plasma erythropoietin level by immunoassay (Example 2, Experiment I). Format: in vivo, Swiss Webster male mice. The conditions noted are these: mice; 200 mg/kg/day oral gavage 2.5 days; 4 h after final dose; relative to untreated controls; FIG. 2B. The method, then:
Twelve Swiss Webster male mice (30-32 g) were obtained from Simonsen, Inc. (Gilroy Calif.), and treated by oral gavage two times per day for 2.5 days (5 doses) with a 4 ml/kg volume of either 0.5% carboxymethyl cellulose (CMC; Sigma-Aldrich, St. Louis Mo.) (0 mg/kg/day) or 2.5% Compound C (25 mg/ml in 0.5% CMC) (200 mg/kg/day). Four hours after the final dose, animals were anesthetized with isoflurane and two blood samples were collected from the abdominal vein. One blood sample was collected into a MICROTAINER serum separator tube (Becton-Dickinson, Franklin Lakes N.J.), and incubated at room temperature for 30 minutes, centrifuged at 8,000 rpm at 4° C. for 10 minutes. The serum fraction was then processed and analyzed for erythropoietin (EPO) expression using a QUANTIKINE immunoassay (R&D Systems) according to the manufacturer's instructions. The second blood sample was collected into a MICROTAINER EDTA-2K tube (Becton-Dickinson) for hematocrit analysis. Hematocrit was measured by drawing EDTA-blood into a 75 mm×1.1-12 mm I.D. capillary tube (Chase Scientific Glass, Inc., Rockwood Tenn.) to approximately ¾ length. One end of the tube was sealed with CRITOSEAL sealant (Sherwood Medical Company) and the tube was centrifuged in a J-503M MICROHEMATOCRIT centrifuge (Jorgensen Laboratories, Inc., Loveland Colo.) at 12,000 rpm for 5 minutes. Hematocrit was read against a reader card. […]

Assay [1] can be described thus: Dose response in vivo: reticulocytes, hemoglobin, hematocrit (Example 3). The arrangement: species or system Sprague Dawley male rats. Particulars: rats. The procedure:
Twelve Sprague Dawley male rats (approx. 260 g) were obtained from Charles River Laboratories, Inc., and treated by oral gavage as follows: (1) Four rats were dosed daily for days 1 to 7 with 0.5% carboxymethyl cellulose (CMC; Sigma-Aldrich, St. Louis Mo.) (0 mg/kg), were not treated for days 8 to 14, and then were dosed daily for days 15 to 19 with 0.5% CMC (0 mg/kg); (2) four animals were treated on day 0 and day 3 with a total of 7 ml/kg/day of 5.0% compound C (50 mg/ml in 0.5% CMC) (350 mg/kg), were not treated days 8 to 14, and then were dosed daily for days 15 to 19 with 3% compound C: (30 mg/ml in 0.5% CMC) (60 mg/kg/day); and (3) four animals were treated daily for days 1 to 7 with a total volume of 4 ml/kg/day of 2.5% compound C (25 mg/ml in 0.5% CMC) (100 mg/kg), were not treated days 8 to 14, and then were dosed daily for days 15 to 19 with 3% compound C (60 mg/kg/day). Thus, groups (2) and (3) received a total of 700 mg compound/kg body weight over the first 7 days, no treatment from days 8 to 14, and then 60 mg/kg/day for another 5 days. Animals were monitored for change in body weight and signs of toxicity. Blood samples (2×0.5 ml) were collected on days 1, 3, 7, 10, 17 and 21 as follows. Animals were anesthetized with isoflurane and 0.5 ml of blood was collected from the tail vein of each animal into each of two MICROTAINER EDTA-2K tubes (Becton-Dickinson). Blood samples were processed for erythropoietin levels, hemoglobin, and hematocrit as described above.

On to `O=C(O)CNC(=O)c1nc(Cl)c2ccccc2c1O` [Compound C, [(1-chloro-4-hydroxy-isoquinoline-3-carbonyl)-amino]-acetic acid], for which the erythropoietin plasma level entry with erythropoietin (EPO) was “significant increase”. In assay [1] (60 mg/kg/day days 15 to 19 after no treatment days 8 to 14), the “increase in hemoglobin and hematocrit with lower doses” value is reported as “maintained over an extended period of time”. The “immature blood cells (reticulocytes)” value in assay [1] (oral gavage, total 700 mg/kg over first 7 days, FIG. 4B) is listed as “subsequent increase”. In assay [1] (oral gavage, total 700 mg/kg over first 7 days, FIG. 4C), the blood hemoglobin levels entry is listed as “increased”. In assay [1] (oral gavage, total 700 mg/kg over first 7 days, FIG. 4D), the hematocrit entry is “increased”.
